Measurements: patent US11413278B2, “Compounds and methods for promoting stress resistance” (priority 2015, dated 2022)
pEC50: −log10 of the molar value. Read-outs that look alike come from different tables or passages of the source.

How the values were obtained:
WI-38 cells [1] = assay: MMS resistance assay; type: cell-based, human; settings: for fold induction at 10 µM: Homo sapiens, 12 h, normalized ATP measurement; for Assay 3: MMS-resistant / Assay 5: Triple resistant: YES/NO; for Assay 3: MMS-resistant: * indicates partial; for Assay 5: Triple resistant: H2O2, cadmium and MMS
Method in brief: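 Resistance to CdCl2 or MMS stress (12 h exposure) was scored in WI-38 fibroblasts pretreated with compound at 0.25–20 μM final, five doses, technical triplicates. MMS plates had compound added 24 h before MMS, after a shift to serum-free DMEM+2% BSA. Significance came from a global variance t-test over two independent runs.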

[2] = test system: PC12 cells expressing poly(Q)103-Htt-EGFP; assay: Poly(Q) toxicity & viability analysis (cellular model of Huntington's disease); type: cell-based, rat; settings: for Viability of PC12 cells upon induction of toxic poly(Q)103-Htt-EGFP aggregates: 2.5 μM, 5 μM, 10 μM and 20 μM; for Assay 20: Huntington's poly-Q toxicity attenuation: 10 uM, YES/NO; for M = Huntington's poly-Q toxicity attenuation: score; for K = Huntington's poly-Q toxicity attenuation: summary score
Description: Viability assays were performed as described before (Aiken et al., 2004). PC12 cells that stably express the inducible poly(Q)103-Htt-EGFP were grown in culture. […] Cell viability was analyzed 48 hrs later by measuring ATP content with CellTiter-Glo.
Toxic protein aggregation is a key feature of many age-related neurodegenerative diseases, including Alzheimer's and Huntington's disease (Caughey and Lansbury, 2003; Ross and Poirier, 2004). A number of animal models (Phillips et al., 2009) and cell models (Schlachetzki et al., 2013) have been established to study these diseases. For this purpose, PC12 rat pheochromocytoma cells display neuronal features and produce neurotransmitters and have been used extensively to study neuronal phenotypes, including synaptic transmission and neurological diseases. […] In this model, induced expression of poly(Q)103-Htt-EGFP could lead to the formation of aggregates and exert substantial toxicity in cells.

[3] = test system: phosphorylated γH2A.X and TP53BP1; assay: DNA damage marker analysis (immuno-staining); settings: for activity at 10 µM: Homo sapiens, WI-38, 24 h; for P = Potential DNA-damaging / R = Potential DNA damaging: human, 24 h
Description: WI-38 cells were seeded on 96-well plates and cultured for 24 hrs and then incubated with small molecules for another 24 hrs. As the positive control to damage DNA, H2O2 was supplemented at 700 μM final concentration for the last 3 hrs. Cells were washed with phosphate-buffered saline (PBS), fixed with 4% paraformaldehyde and then blocked with 5% normal goat serum (Cell Signaling), plus 0.3% Triton X-100, for 1 hr. Primary antibody cocktail (rabbit anti-phospho-histone γH2A.X (Ser-139), 1:100; anti-phospho-TP53BP1 (Ser-1778), 1:100), prepared in 1% BSA and 0.3% Triton X-100/PBS, was then introduced and incubated overnight at 4 C. Next day, samples were washed with PBS and further incubated with fluorophore-conjugated secondary antibody (1:1,000) for 1 hr in the dark. Samples were then washed and incubated with DAPI dye (Life Technologies) (4 μg/ml final concentration) for the last 10 minutes. Images were collected on an INCell Analyzer 2000 (GE) and analyzed with the Developer software.
WI-38 cells were seeded (˜8,000 cells per well) on 96-well plates and cultured for 24 hrs and then incubated with small molecules for another 24 hrs. Doxorubicin (300 nM, 24 hrs) and H2O2 (700 μM, 3 hrs) were also introduced as the positive controls to damage DNA. Cells were washed with phosphate-buffered saline (PBS), fixed with 4% paraformaldehyde for 30 min and then blocked with 5% normal goat serum (Cell Signaling) and 0.3% Triton X-100 for 1 hr. Primary antibody cocktail (Cell Signaling, rabbit anti-phospho-histone γH2A.X (Ser-139), 1:100; anti-phospho-TP53BP1 (Ser-1778), 1:100) was prepared in PBS with 1% BSA and 0.3% Triton X-100 and incubated overnight at 4° C. Next day, samples were washed with PBS and further incubated with fluorophore-conjugated secondary antibody (1:1,000) for 1 hr in dark. Samples were then washed and incubated with DAPI dye (Life Technologies) (4 μg/ml final concentration) for 30 minutes. Images were collected on the INCell Analyzer 2000 (10× objective) and analyzed with the Developer Toolbox.

WI-38 cells [4] = assay: Long-term effects on cell viability (5 days, ATP; morphology, PI imaging); type: cell-based; settings: 10 μM; for Luminescence signal for ATP measurement, day-1 Average / Luminescence signal for ATP measurement, day-2 Average / Luminescence signal for ATP measurement, day-3 Average / Luminescence signal for ATP measurement, day-4 Average / Luminescence signal for ATP measurement, day-5 Average / viability at 10 µM: Batch 1; for Luminescence signal for ATP measurement, day-1 Average / Luminescence signal for ATP measurement, day-2 Average / Luminescence signal for ATP measurement, day-3 Average / Luminescence signal for ATP measurement, day-4 Average / Luminescence signal for ATP measurement, day-5 Average: n = 6, day-0 luminescence = 320956 ± 24708; for viability at 10 µM: Homo sapiens, WI-38, 120 h, DMSO ctrl = 100.0%, read-out: ATP luminescence by day-5 normalized; for Luminescence signal for ATP measurement, day-5 Average / viability at 10 µM: day-5; for O = Potential toxicity / Q = Potential toxicity / Reduction of ATP content after 5 days of continuous incubation: human, 5 days;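 for Luminescence signal for ATP measurement, day-2 Average: compounds at 10 µM with ATP read daily over 5 days of treatment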;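 for Luminescence signal for ATP measurement, day-3 Average: compounds at 10 µM with ATP read daily over 5 days of treatment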;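 for Luminescence signal for ATP measurement, day-4 Average: compounds at 10 µM with ATP read daily over 5 days of treatment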;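 for Luminescence signal for ATP measurement, day-5 Average: compounds at 10 µM with ATP read daily over 5 days of treatment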
Description: In addition, cell death was scored by PI-imaging on day 2 and day 5 of treatment.
Applicants introduced molecules (at 10 uM final concentration) to WI-38 fibroblasts and then assayed cell viability (through ATP measurement) everyday, during a course of 5 days of continuous treatment. […] Applicants also examined the morphology and scored cell death (propidium iodide staining) for cells treated with the above molecules. Of these 14 molecules, some appeared to cause cell toxicity. […] Despite the observed long-term toxicity, these molecules are still interesting as they may act as anti-tumor agents in vivo, should they have more pronounced cytotoxicity on highly proliferative tumor cells. When cells were incubated with these molecules for ˜24 hrs and then subject to hydrogen peroxide for 3 hrs, these molecules are all protective. […] Some of these small molecules may be toxic by themselves under certain conditions, but by inducing protective mechanisms, they may trigger “hormesis” and therefore protect cells from oxidative stress.

WI-38 cells [5] = settings: for No H2O2 stress treatment, at 10 uM (fold change): normalized ATP measurement; for Assay 1: H2O2-resistant: YES/NO, if NO, possibly due to repeated freezing/thawing of stocks
[6] = Exp. 1, WI-38 cells, read-out: Exp. 1, under MMS stress treatment, at 10 uM (fold change)
[7] = Exp. 2, WI-38 cells, read-out: Exp. 2, under MMS stress treatment, at 10 uM (fold change)
[8] = score in summary of 38 core set hits
[9] = read-out: Experiment 1, H2A.X-P DNA damage foci staining (no H2O2 stress treatment), at 10 uM
[10] = read-out: Experiment 2, H2A.X-P DNA damage foci staining (no H2O2 stress treatment), at 10 uM
[11] = read-out: Experiment 2, H2A.X-P DNA damage foci staining (under H2O2 stress treatment), at 10 uM
[12] = read-out: Experiment 2, TP53BP1-P DNA damage foci staining (no H2O2 stress treatment), at 10 uM
[13] = read-out: Experiment 2, TP53BP1-P DNA damage foci staining (under H2O2 stress treatment), at 10 uM
[14] = WI-38 cells, 10 μM, (*) = compromised ability to protect cells from H2O2, could be due to stability issue
[15] = asterisks indicate the loss of the ability to protect cells from H2O2 over time
[16] = derived from dose response curves, 0.6-20 uM, H2O2-resistance of WI-38 cells
[17] = read-out: Est. ED50, dose response 0.6-20 μM, H2O2-resistance

Row | SMILES | fold induction at 10 µM (WI-38 cells [1]; [6]) | fold induction at 10 µM (WI-38 cells [1]; [7]) | B = MMS resistant (WI-38 cells [1]; [8]) | B = MMS resistant (WI-38 cells [1]; summary score) | D = Triple resistant (WI-38 cells [1]; summary score) | M = Huntington's poly-Q toxicity attenuation [2] | K = Huntington's poly-Q toxicity attenuation [2] | activity at 10 µM [3, 9] | activity at 10 µM [3, 10] | activity at 10 µM [3, 11] | activity at 10 µM [3, 12] | activity at 10 µM [3, 13] | P = Potential DNA-damaging [3] | R = Potential DNA damaging [3] | Luminescence signal for ATP measurement, day-1 Average (WI-38 cells [4]) | Luminescence signal for ATP measurement, day-2 Average (WI-38 cells [4]) | Luminescence signal for ATP measurement, day-3 Average (WI-38 cells [4]) | Luminescence signal for ATP measurement, day-4 Average (WI-38 cells [4]) | Luminescence signal for ATP measurement, day-5 Average (WI-38 cells [4]) | viability at 10 µM (WI-38 cells [4]) | other results
1 | NS(=O)(=O)c1ccc(NC(=O)c2ccc([N+](=O)[O-])o2)cc1 [Gr-1A] | 0.72 | 2.42 | 0 | 1 | 2 | 1 | 1 | 196% | 223% | 179% | 411% | 653% | 1 | 1 | 477461 | 610735 | 739676 | 878508 | 943836 | 91.9% | Assay 3: MMS-resistant (WI-38 cells [1]): YES; Assay 5: Triple resistant (WI-38 cells [1]): YES; Viability of PC12 cells upon induction of toxic poly(Q)103-Htt-EGFP aggregates [2]: consistently increased the viability; Assay 20: Huntington's poly-Q toxicity attenuation [2]: YES; O = Potential toxicity (WI-38 cells [4]): 0; Q = Potential toxicity (WI-38 cells [4]): 0; Reduction of ATP content after 5 days of continuous incubation (WI-38 cells [4]): more than 40%; H2O2-resistant (WI-38 cells [5]; [14]): YES; No H2O2 stress treatment, at 10 uM (fold change) (WI-38 cells [5]; WI-38 cells): 0.72 fold change; Assay 1: H2O2-resistant (WI-38 cells [5]): YES; H2O2-resistant (WI-38 cells [5]; [15]): YES; pEC50 (WI-38 cells [5]; [16]): 5.22; pEC50 (WI-38 cells [5]; [17]): 5.60
2 | O=C(Nc1cc(C(F)(F)F)ccc1Cl)c1ccc([N+](=O)[O-])o1 [Gr-1B] | 0.7 | 3.03 | 0 | 0 | 0 | 0 | 0 | 134% | 95.8% | 118% | 211% | 137% | 0 | 0 | 442035 | 577575 | 726850 | 977658 | 1021113 | 99.4% | Assay 3: MMS-resistant (WI-38 cells [1]): NO *; Assay 5: Triple resistant (WI-38 cells [1]): YES; O = Potential toxicity (WI-38 cells [4]): 1; Q = Potential toxicity (WI-38 cells [4]): 0; Reduction of ATP content after 5 days of continuous incubation (WI-38 cells [4]): more than 40%; H2O2-resistant (WI-38 cells [5]; [14]): YES; No H2O2 stress treatment, at 10 uM (fold change) (WI-38 cells [5]; WI-38 cells): 0.94 fold change; Assay 1: H2O2-resistant (WI-38 cells [5]): YES; H2O2-resistant (WI-38 cells [5]; [15]): YES; pEC50 (WI-38 cells [5]; [16]): 5.21; pEC50 (WI-38 cells [5]; [17]): 5.58
3 | CCc1ccccc1NC(=O)c1ccc([N+](=O)[O-])o1 [Gr-1C] | 0.73 | 0.39 | 0 | 0 | 0 | 1 | 1 | 217% | 311% | 178% | 375% | 552% | 1 | 1 | 421913 | 545683 | 662368 | 875881 | 819655 | 79.8% | Viability of PC12 cells upon induction of toxic poly(Q)103-Htt-EGFP aggregates [2]: consistently increased the viability; Assay 20: Huntington's poly-Q toxicity attenuation [2]: YES; O = Potential toxicity (WI-38 cells [4]): 1; Q = Potential toxicity (WI-38 cells [4]): 0; H2O2-resistant (WI-38 cells [5]; [14]): YES; No H2O2 stress treatment, at 10 uM (fold change) (WI-38 cells [5]; WI-38 cells): 0.81 fold change; Assay 1: H2O2-resistant (WI-38 cells [5]): YES; H2O2-resistant (WI-38 cells [5]; [15]): YES; pEC50 (WI-38 cells [5]; [16]): 5.10; pEC50 (WI-38 cells [5]; [17]): 5.58
4 | O=C(Nc1cccc(Cl)c1)c1ccc([N+](=O)[O-])o1 [Gr-1D] | 1.16 | 2.31 | 0 | 1 | 2 | 0 | 0 | 232% | 353% | 164% | 353% | 554% | 1 | 1 | 396843 | 497248 | 542643 | 797305 | 865168 | 84.3% | Assay 3: MMS-resistant (WI-38 cells [1]): YES; Assay 5: Triple resistant (WI-38 cells [1]): YES; O = Potential toxicity (WI-38 cells [4]): 1; Q = Potential toxicity (WI-38 cells [4]): 0; H2O2-resistant (WI-38 cells [5]; [14]): YES; No H2O2 stress treatment, at 10 uM (fold change) (WI-38 cells [5]; WI-38 cells): 0.91 fold change; Assay 1: H2O2-resistant (WI-38 cells [5]): YES; H2O2-resistant (WI-38 cells [5]; [15]): YES; pEC50 (WI-38 cells [5]; [16]): 5.34; pEC50 (WI-38 cells [5]; [17]): 5.57
